Data taken from ChEMBL document CHEMBL5661943, “ASAP - In vitro antiviral effect” (2024).

Key:
dengue virus type 2 = test: Functional immunofluorescence assay to measure dose dependent changes in antiviral-drug inhibitory efficacy against Dengue virus type 2 Thailand/16681/84 in Vero E6/TMPRSS2 cells (cotreated with P-gp inhibitor, Elacridar). Cells are treated with antiviral candidates that are serially diluted, following infection, cells are fixed. EC50 is reported via analysis of immunofluorescence staining. The assay has been performed by Icahn School of Medicine at Mount Sinai.; format: organism-based, Chlorocebus sabaeus, VeroE6/TMPRSS2; settings: Dengue virus; for EC90: P-gp concentration 2 uM, P-gp inhibitor Elacidar
Zika virus = test: EC50 is reported via analysis of immunofluorescence staining. The assay has been performed by Icahn School of Medicine at Mount Sinai.; format: functional, organism-based, Chlorocebus sabaeus, VeroE6/TMPRSS2; settings: Zika virus; for EC90: P-gp concentration 2 uM, P-gp inhibitor Elacidar

| Compound | EC50 (dengue virus type 2; VeroE6/TMPRSS2) | EC50 (Zika virus; VeroE6/TMPRSS2) | other results |
| --- | --- | --- | --- |
| N#Cc1cc(Cl)cc(C(=O)Nc2ccc3c(c2)CNC3)c1 | > 50 µM | 47.2 µM | EC90 (dengue virus type 2; VeroE6/TMPRSS2, Maximum measured 57.395 %, Minimum measured 32.413 %): > 50 µM; EC90 (Zika virus; VeroE6/TMPRSS2, Baseline response 0 %, Hill slope -12.375, Maximum measured 129.405 %, Maximum response 100 %, Minimum measured 33.162 %, R squared 0.602): > 50 µM |
| Cc1ccc(S(=O)(=O)CNC(=O)[C@H](Nc2ccc3c(c2)CNC3)c2cc(Cl)cc3[nH]ncc23)cc1 | > 50 µM | > 5.56 µM | EC90 (dengue virus type 2; VeroE6/TMPRSS2, Baseline response 0 %, Hill slope 0.271, Maximum measured 147.697 %, Maximum response 100 %, Minimum measured 56.785 %, R squared 0.117): > 50 µM; EC90 (Zika virus; VeroE6/TMPRSS2, Baseline response 0 %, Hill slope -0.504, Maximum measured 105.322 %, Maximum response 100 %, Minimum measured 58.532 %, R squared 0.723): > 5.56 µM |
| O=C(Nc1ccc2c(c1)CNC2)c1cc(Cl)ccc1SC1CCCC1 | > 16.7 µM | > 16.7 µM | EC90 (dengue virus type 2; VeroE6/TMPRSS2, Maximum measured 58.655 %, Minimum measured 40.644 %): > 16.7 µM; EC90 (Zika virus; VeroE6/TMPRSS2, Maximum measured 121.888 %, Minimum measured 81.617 %): > 16.7 µM |
| N#Cc1cc(Cl)cc([C@H](C#N)Nc2ccc3c(c2)CNC3)c1 | > 16.7 µM | > 50 µM | EC90 (dengue virus type 2; VeroE6/TMPRSS2, Maximum measured 121.447 %, Minimum measured 87.688 %): > 16.7 µM; EC90 (Zika virus; VeroE6/TMPRSS2, Baseline response 0 %, Hill slope -0.289, Maximum measured 115.578 %, Maximum response 100 %, Minimum measured 78.039 %, R squared 0.102): > 50 µM |
| O=C(Nc1ccc2c(c1)CNC2)c1cc(Br)cc2[nH]c(C3CCOCC3)nc12 | > 5.56 µM | > 5.56 µM | EC90 (dengue virus type 2; VeroE6/TMPRSS2, Maximum measured 89.147 %, Minimum measured 35.738 %): > 5.56 µM; EC90 (Zika virus; VeroE6/TMPRSS2, Maximum measured 127.67 %, Minimum measured 33.686 %): > 5.56 µM |
| Cc1ccc2cc(Cl)cc(C(=O)Nc3ccc4c(c3)CNC4)c2n1 | > 5.56 µM | > 16.7 µM | EC90 (dengue virus type 2; VeroE6/TMPRSS2, Maximum measured 235.971 %, Minimum measured 154.17 %): > 5.56 µM; EC90 (Zika virus; VeroE6/TMPRSS2, Maximum measured 117.23 %, Minimum measured 34.966 %): > 16.7 µM |
| O=C(Nc1cnc2c(c1)CNCC2)c1cc(Cl)cc2[nH]ncc12 | > 50 µM | 45.4 µM | EC90 (dengue virus type 2; VeroE6/TMPRSS2, Maximum measured 104.893 %, Minimum measured 59 %): > 50 µM; EC90 (Zika virus; VeroE6/TMPRSS2, Baseline response 0 %, Hill slope -15.177, Maximum measured 54.077 %, Maximum response 44.083 %, Minimum measured 8.284 %, R squared 0.548): > 50 µM |
| O=C(NCC1CCOCC1)[C@H](Nc1ccc2c(c1)CNC2)c1cc(Cl)cc2[nH]ncc12 | > 16.7 µM | > 16.7 µM | EC90 (dengue virus type 2; VeroE6/TMPRSS2, Maximum measured 245.258 %, Minimum measured 99.219 %): > 16.7 µM; EC90 (Zika virus; VeroE6/TMPRSS2, Maximum measured 73.647 %, Minimum measured 25.821 %): > 16.7 µM |
| CCOC(=O)[C@H]1[C@H](c2cc(Cl)cc(NC(=O)OCc3ccccc3)c2)[C@H]1c1cccc(-c2nnn[nH]2)c1 | 10.1 µM | 39.5 µM | EC90 (dengue virus type 2; VeroE6/TMPRSS2, Baseline response 0 %, Hill slope -0.678, Maximum measured 159.228 %, Maximum response 100 %, Minimum measured 7.966 %, R squared 0.513): > 50 µM; EC90 (Zika virus; VeroE6/TMPRSS2, Baseline response 0 %, Hill slope -17.688, Maximum measured 145.242 %, Maximum response 100 %, Minimum measured 1.538 %, R squared 0.641): 44.8 µM |
